# According to patent publication US8541410B2, “Sulfur substituted sulfonylaminocarboxylic acid N-arylamides, their preparation, their use and pharmaceutical preparations comprising them” (Sanofi-aventis Deutschland GmbH, priority 1998, dated 2013):
# Target: T1, soluble guanylate cyclase (sGC) (Bos taurus, UniProt P16068)
# T1 construct: The sGC which was employed had been isolated from bovine lung; from tissue; host or cells: bovine lung
# T1 sequence (P16068 1-619): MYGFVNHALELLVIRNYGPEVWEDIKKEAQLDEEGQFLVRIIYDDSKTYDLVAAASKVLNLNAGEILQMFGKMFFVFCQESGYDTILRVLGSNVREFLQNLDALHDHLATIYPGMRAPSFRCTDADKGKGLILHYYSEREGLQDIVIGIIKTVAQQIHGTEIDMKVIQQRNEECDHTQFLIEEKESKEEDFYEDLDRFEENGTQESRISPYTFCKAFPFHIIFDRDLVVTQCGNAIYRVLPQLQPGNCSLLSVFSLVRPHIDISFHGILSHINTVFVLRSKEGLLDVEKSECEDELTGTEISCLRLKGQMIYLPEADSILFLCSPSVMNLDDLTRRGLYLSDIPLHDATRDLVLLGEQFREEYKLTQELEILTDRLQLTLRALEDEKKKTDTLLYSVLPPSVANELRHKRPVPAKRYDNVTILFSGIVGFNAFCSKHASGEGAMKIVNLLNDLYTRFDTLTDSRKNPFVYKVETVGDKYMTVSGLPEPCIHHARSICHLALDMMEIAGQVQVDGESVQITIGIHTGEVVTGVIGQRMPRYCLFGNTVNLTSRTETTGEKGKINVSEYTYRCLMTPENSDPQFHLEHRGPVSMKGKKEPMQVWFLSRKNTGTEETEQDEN
# T1 sequence (P19687 1-691 partner): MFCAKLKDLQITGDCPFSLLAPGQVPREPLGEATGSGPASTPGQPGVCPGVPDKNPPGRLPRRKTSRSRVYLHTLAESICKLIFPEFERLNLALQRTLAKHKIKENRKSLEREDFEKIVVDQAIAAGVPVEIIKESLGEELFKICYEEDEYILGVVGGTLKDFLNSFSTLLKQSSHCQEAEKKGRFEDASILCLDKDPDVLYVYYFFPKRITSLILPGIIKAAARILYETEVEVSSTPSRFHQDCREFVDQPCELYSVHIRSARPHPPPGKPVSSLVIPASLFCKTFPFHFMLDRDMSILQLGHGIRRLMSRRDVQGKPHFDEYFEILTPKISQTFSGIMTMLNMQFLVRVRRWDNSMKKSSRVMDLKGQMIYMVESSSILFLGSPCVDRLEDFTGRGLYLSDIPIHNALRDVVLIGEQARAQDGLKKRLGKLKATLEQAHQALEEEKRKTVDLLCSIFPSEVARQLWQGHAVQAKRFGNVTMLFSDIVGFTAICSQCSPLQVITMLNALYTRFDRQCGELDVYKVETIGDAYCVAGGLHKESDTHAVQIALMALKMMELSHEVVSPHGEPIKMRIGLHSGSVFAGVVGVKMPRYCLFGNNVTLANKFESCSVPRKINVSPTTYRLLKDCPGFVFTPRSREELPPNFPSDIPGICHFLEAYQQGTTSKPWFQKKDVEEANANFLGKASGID
# Assay: Activation of the soluble guanylate cyclase (cGMP enzyme immunoassay)
# Type: biochemical, bovine
# Details: concentration c 5 μM; n-fold stimulation of basal enzyme activity
# Method: The activation of the soluble guanylate cyclase (sGC) which catalyzes the conversion of guanosine triphosphate (GTP) into cyclic guanosine monophosphate (cGMP) and pyrophosphate, by the compounds according to the invention was quantified with the aid of an enzyme immunoassay (EIA) from Amersham. For this purpose the substances to be tested were initially incubated with sGC in microtiter plates, and the amount of the cGMP formed was then determined.
# The sGC which was employed had been isolated from bovine lung (see Methods in Enzymology, Volume 195, p. 377). The test solutions (100 μl per well) contained 50 mM triethanolamine (TEA) buffer (pH 7.5), 3 mM MgCl2, 3 mM reduced glutathione (GSH), 0.1 mM GTP, 1 mM 3-isobutyl-1-methylxanthine (IBMX), suitably diluted enzyme solution and the substance to be tested or, in the control experiments, the solvent. The substances to be tested were dissolved in dimethyl sulfoxide (DMSO) and the solution was diluted with DMSO/water, so that the final concentration (c) of the substance to be tested in the test solution had the value indicated in the table. The DMSO concentration in the test solution was 5% (v/v). The reaction was initiated by addition of the sGC. The reaction mixture was incubated at 37° C. for 15 to 20 minutes and then stopped by ice-cooling and addition of the stop reagent (50 mM EDTA, pH 8.0). An aliquot of 50 μl was taken and used for determining the cGMP content using the acetylation protocol of the Amersham cGMP-EIA kit. The absorption of the samples was measured at 450 nm (reference wavelength 620 nm) in a microtiter plate reader. The cGMP concentration was determined using a standard curve which was obtained under the same test conditions. The activation of sGC by a test substance is given as the n-fold stimulation of the basal enzyme activity which was found in the control experiments (using solvent instead of test substance) (calculated using the formula n-fold stimulation=[cGMP]test substance/[cGMP]control).
row,Compound,n-fold stimulation
1,"Cc1cc(NC(=O)c2cc(Cl)ccc2NS(=O)(=O)c2ccc(Cl)cc2)ccc1S(=O)(=O)N1CC(C)CC(C)C1 (stereo not drawn) [Example 194, 5-Chloro-2-(4-chloro-phenylsulfonylamino)-N-(4-(3,5-dimethyl-piperidine-1-sulfonyl)-3-methyl-phenyl)-benzamide]",20.0

# Same assay, conditions: concentration c 10 μM; n-fold stimulation of basal enzyme activity
row,Compound,n-fold stimulation
1,"COc1cc(NS(=O)(=O)c2ccc(Cl)s2)c(C(=O)Nc2ccc(S(=O)(=O)N(C)Cc3cccnc3)cc2)cc1OC.Cl [Example 191, 4,5-Dimethoxy-2-(5-chloro-thiophene-2-sulfonylamino)-N-(4-(N-methyl-N-(pyridin-3-yl-methyl)=aminosulfonyl)-phenyl)-benzamide hydrochloride]",27.5
2,"Cc1cc(NC(=O)c2cc(Cl)ccc2NS(=O)(=O)c2ccc(Cl)cc2)ccc1S(=O)(=O)N1CCOCC1 [Example 192, 5-Chloro-2-(4-chloro-phenylsulfonylamino)-N-(4-(morpholine-4-sulfonyl)-3-methyl-phenyl)-benzamide]",26.7
3,"Cc1cc(NC(=O)c2cc(Cl)ccc2NS(=O)(=O)c2ccc(Cl)cc2)ccc1S(=O)(=O)N1C[C@@H](C)O[C@@H](C)C1 [Example 193, 5-Chloro-2-(4-chloro-phenylsulfonylamino)-N-(4-(cis-2,6-dimethyl-morpholine-4-sulfonyl)-3-methyl-phenyl)-benzamide]",31.1
4,"Cc1cc(NC(=O)c2cc(Cl)ccc2NS(=O)(=O)c2ccc(Cl)cc2)ccc1S(=O)(=O)N1CCCCC1 [Example 195, 5-Chloro-2-(4-chloro-phenylsulfonylamino)-N-(4-(piperidine-1-sulfonyl)-3-methyl-phenyl)-benzamide]",16.2
5,"COc1cc(NS(=O)(=O)c2c(C)noc2C)c(C(=O)Nc2ccc(S(=O)(=O)N(C)Cc3cccnc3)cc2)cc1OC [Example 196, 4,5-Dimethoxy-2-(3,5-dimethyl-isoxazole-4-sulfonylamino)-N-(4-(N-methyl-N-(pyridin-3-yl-methyl)-aminosulfonyl)-phenyl)-benzamide]",21.9

# Same assay, conditions: concentration c 50 μM; n-fold stimulation of basal enzyme activity
row,Compound,n-fold stimulation
1,"O=C(Nc1ccc(S(=O)(=O)N2CCOCC2)cc1)c1cc(Cl)ccc1NS(=O)(=O)c1cccnc1 [Example 132, 5-Chloro-N-(4-(morpholine-4-sulfonyl)-phenyl)-2-(pyridine-3-sulfonylamino)-benzamide]",9.9
2,"CCS(=O)(=O)Nc1ccc(Cl)cc1C(=O)Nc1ccc(S(=O)(=O)N2CCOCC2)cc1 [Example 134, 5-Chloro-2-(ethylsulfonylamino)-N-(4-(morpholine-4-sulfonyl)-phenyl)-benzamide]",7.2
3,"O=C(Nc1ccc(S(=O)(=O)N2CCOCC2)cc1)c1cc(Cl)ccc1NS(=O)(=O)c1cccs1 [Example 136, 5-Chloro-N-(4-(morpholine-4-sulfonyl)-phenyl)-2-(thiophene-2-sulfonylamino)-benzamide]",24.2
4,"O=C(Nc1ccc(S(=O)(=O)N2CCOCC2)cc1)c1cc(Cl)ccc1NS(=O)(=O)c1ccc(C(F)(F)F)cc1 [Example 137, 5-Chtoro-N-(4-(morpholine-4-sulfonyl)-phenyl)-2-(4-trifluoromethyl-phenylsulfonylamino)-benzamide]",4.6
5,"O=C(Nc1ccc(S(=O)(=O)N2CCOCC2)cc1)c1cc(Cl)ccc1NS(=O)(=O)c1cc(C(F)(F)F)cc(C(F)(F)F)c1 [Example 139, 2-(3,5-Bis-trifluoromethyl-phenylsulfonylamino)-5-chloro-N-(4-(morpholine-4-sulfonyl)-phenyl)-benzamide]",21.9
6,"O=C(Nc1ccc(S(=O)(=O)N2CCOCC2)cc1)c1cc(Cl)ccc1NS(=O)(=O)c1cc(Br)c(Br)s1 [Example 145, 5-Chloro-2-(4,5-dibromo-thiophene-2-sulfonylamino)-N-(4-(morpholine-4-sulfonyl)-phenyl)-benzamide]",8
7,"O=C(Nc1ccc(S(=O)(=O)N2CCOCC2)cc1)c1cc(Cl)ccc1NS(=O)(=O)c1ccc(F)cc1 [Example 146, 5-Chloro-2-(4-fluoro-phenylsulfonylamino)-N-(4-(morpholine-4-sulfonyl)-phenyl)-benzamide]",10.2
8,"COc1ccc(S(=O)(=O)Nc2ccc(Cl)cc2C(=O)Nc2ccc(S(=O)(=O)N3CCOCC3)cc2)cc1Cl [Example 148, 5-Chloro-2-(3-chloro-4-methoxy-phenylsulfonylamino)-N-(4-(morpholine-4-sulfonyl)-phenyl)-benzamide]",15.5
9,"Cc1cc(C)c(S(=O)(=O)Nc2ccc(Cl)cc2C(=O)Nc2ccc(S(=O)(=O)N3CCOCC3)cc2)c(C)c1 [Example 150, 5-Chloro-N-(4-(morpholine-4-sulfonyl)-phenyl)-2-(2,4,6-trimethyl-phenylsulfonylamino)-benzamide]",15.3
10,"O=C(Nc1ccc(S(=O)(=O)N2CCOCC2)cc1)c1cc(Cl)ccc1NS(=O)(=O)c1cccc([N+](=O)[O-])c1 [Example 151, 5-Chloro-N-(4-(morpholine-4-sulfonyl)-phenyl)-2-(3-nitro-phenylsulfonylamino)-benzamide]",19.9
11,"O=C(Nc1ccc(S(=O)(=O)N2CCOCC2)cc1)c1cc(Cl)ccc1NS(=O)(=O)CC(F)(F)F [Example 155, 5-Chloro-N-(4-(morpholine-4-sulfonyl)-phenyl)-2-(2,2,2-trifluoro-ethylsulfonylamino)-benzamide]",7.8
12,"CCCCS(=O)(=O)Nc1ccc(Cl)cc1C(=O)Nc1ccc(S(=O)(=O)N2CCOCC2)cc1 [Example 156, 2-(Butyl-sulfonylamino)-5-chloro-N-(4-(morpholine-4-sulfonyl)-phenyl)-benzamide]",7.8
13,"O=C(Nc1ccc(S(=O)(=O)N2CCOCC2)cc1)c1cc(Cl)ccc1NS(=O)(=O)c1cccc(C(F)(F)F)c1 [Example 157, 5-Chloro-N-(4-(morpholine-4-sulfonyl)-phenyl)-2-(3-trifluoromethyl-phenylsulfonylamino)-benzamide]",4.6
14,"COc1cc(NS(=O)(=O)c2ccc(Cl)cc2)c(C(=O)Nc2ccc(S(=O)(=O)N3CCS(=O)(=O)CC3)cc2)cc1OC [Example 175, 2-(4-Chloro-phenylsulfonylamino)-4,5-dimethoxy-N-(4-(1,1-dioxo-thiomorpholine-4-sulfonyl)-phenyl)-benzamide]",21.1
15,"COc1cc(NS(=O)(=O)c2ccc(Cl)cc2)c(C(=O)Nc2ccc(S(=O)(=O)N3CC[S+]([O-])CC3)cc2)cc1OC [Example 176, 2-(4-Chloro-phenylsulfonylamino)-4,5-dimethoxy-N-(4-(1-oxo-thiomorpholine-4-sulfonyl)-phenyl)-benzamide]",13.9
